{
  "source": "patent US20250314636A1",
  "about": "“METHOD OF PREPARING AND EXPANDING A POPULATION OF IMMUNE CELLS FOR CANCER THERAPY, POTENCY ASSAY FOR TUMOR RECOGNITION, BIOLOGICAL VACCINE PREPARATION AND EPITOPETARGET FOR ANTIBODIES” (FUNDAÇÃO D. ANNA DE SOMMER CHAMPALIMAUD E DR. CARLOS MONTEZ …, priority 2022, published 2025)",
  "key": {"NRLP3 pathway": {"system": "NRLP3 pathway", "test": "Testing of the NRLP3 pathway: KRAS peptide recognition by TIL expanded with or without MCC950", "format": "cell-based, human", "details": "TIL expanded with cardiolipin in presence of MCC950 (10 uM/mL)", "experimental": "The number of peptide targets recognized as well as the amount of IFN-γ in pg/10e^4 TIL/target/7 days was analyzed and compared in the cardiolipin-positive versus negative group testing with Human IFN-γ ELISA basic kit (HRP).\nSince cardiolipin has been reported to activate the NRLP3 inflammasome, aliquots of these same TIL preparation were expanded and the absence or presence of the NRLP3 inhibitor (MCC950) was investigated."}, "TIL [1]": {"system": "TIL", "test": "Peptide recognition assay in TIL (IFN-γ ELISA / IL-17 in supernatant, 7 days)", "format": "cell-based, human", "experimental": "Peptides from tumor-associated antigens (TAAs), listed in Table 5 were placed at 1 ug/well in duplicates using anti-CD3 at 30 ng/mL as well as PHA at 5 μg/mL as positive controls.\nThe differences in TIL versus PBMCs can also be defined by peptide reactivity. 10e^4 TIL or 10e^4 PBMC/well were co-cultured with the peptides listed in Table 11 below for 7 days and the supernatants were tested for IFN-γ production."}, "[2]": {"system": "human IgG in serum from patients with pancreatic cancer", "test": "ELISA of serum IgG binding to MUC4 epitope PVTSLSSVSTGDTTP (OD 405 nm)", "details": "sera from patient S1 and S15, dilutions 1:2 and 1:10", "source_text": "The MUC4 peptide is targeted by human IgG in serum from patients with cancer. […] The epitope PVTSLSSVSTGDTTP was linked to an ELISA plate via a streptavidin-biotin scaffold and tested for IgG recognition in serum from different patients with pancreatic cancer. The optical density (OD) read at 405 nm wavelength was used to detect IgG binding in sera from patients showing that some individuals have a higher IgG concentration to this epitope as compared to other patients, some patients have no IgG reactivity at all showing that there is individual IgG reactivity to this distinct MUC4 epitopes. The anti-human IgG directed antibody A2064 clone GG-5 from Sigma-Aldrich coupled to Alkaline-Phosphatase was used to detect epitope reactivity. The assay layout and reactivity reading are shown in Tables 12 and 13 (layouts and ODs, respectively) below.\nSera from different patients with PDAC (labeled as S1-S15) were incubated with the target epitope at different dilutions in phosphate-buffered saline (PBS) (1:2 and 1:10) and reactivity was tested based on the OD reading."}, "TIL [3]": {"system": "TIL", "test": "IFN-γ induction assay / cytokine production of TIL after anti-CD3 crosslinking, 24 h, 10e5 cells", "format": "cell-based, human", "details": "TIL with or without cardiolipin", "experimental": "In table 3, TIL were seated in at 10e^5 cells/well in triplicates in medium containing IL-2/IL-7/IL-15+cardiolipin (medium) or in IL-2/IL-7/IL-15+cardiolipin plus anti-CD3-IgG1 at 30 ng/mL to crosslink the T-cell receptor.\nSupernatants were harvested after 24 hours in order to test for maximal T-cell activation defined in 24 hrs./10e^5 cells for comparison. The delta between maximal stimulation (b) and constitutive cytokine production (A) is summarized in row “delta (B-A)”.\nThis assay is used to measure the IFN-γ production after anti-CD3 induced activation during 24 h in 10^5 cells."}, "PBMCs": {"system": "PBMCs", "test": "Percentage of γδ T-cells in healthy individuals PBMCs expanded in presence or absence of cardiolipin", "format": "cell-based, human", "experimental": "PBMCs of healthy individuals expanded in the presence of cardiolipin without interleukins increased the frequency of γδ T-cells (Table 4).\n(§1) TIL and PBMCs were analyzed using several DuraClone (Beckman Coulter) Panels, always with addition of the LIVE/DEAD™ Fixable Yellow Dead Cell Stain Kit: DuraClone IM T-cell Subsets tube adding LAG-3 BV650 and CD95 BV785 and Duraclone IM TCRs tube. Besides, another panel with commercially available antibodies were used, which included CD4 Pacific Blue, CD8 KromeOrange, CXCR3 BV650, CD95 BV785, CD103 FITC, CCR7 PE, CCR4 PE/Dazzle, TCR pan-γ/δ PC5.5, CCR6 PC-7, CCR9 Alexa Fluor 647, CD45RA AF700, CD3 APC-A750 and LIVE/DEAD™ Fixable Yellow Dead Cell Stain Kit. After 15 minutes incubation, T-cells and PBMCs were washed in PBS-2% FBS and acquired using a CytoFlex LX flow cytometer from Beckman Coulter. Analysis was performed using FlowJo software."}, "TIL [4]": {"system": "TIL", "test": "Flow cytometric analysis of TIL and PBMC phenotype", "format": "cell-based, human", "experimental": "Different phenotypes in TIL were observed, when using different tumor regions in the three-expansion step herein proposed.\nγδ T-cells were negatively sorted using a commercial kit from Stem Cell. Purity of negatively sorted cells was tested by flow cytometry using the DURAclone panel IM TCRs.\nas §1"}, "TIL [5]": {"system": "TIL", "test": "RNA sequencing, differential gene expression in TIL grown with and without cardiolipin", "format": "cell-based, human", "details": "TIL expanded with vs without cardiolipin, DESeq2 FDR <0.10", "experimental": "RNA from TIL was isolated using the commercially available RNeasy Mini Kit (Qiagen) and sequencing was done using the Illumina NovaSeq 6000 system with 100 bp paired end read lengths. Adapters were removed.\nTranscriptome sequencing data alignment was performed using STAR two-pass method to human genome build hg19. Duplicates were marked using the Picard's MarkDuplicates tool and reads were split using the GATK SplitNCigarReads tool and variants were called using Varscan2. STAR-Fusion was used to identify candidate fusion transcripts and its output was annotated using AGFusion.\nRNA sequencing was performed in seven of TIL expansions (i.e. from seven individual patients) with or without cardiolipin and tested for differential gene expression (FIG. 15). Genes with extremely low counts across samples were removed because they provide little evidence for differential expression and may interfere with some of the statistical approximations used."}, "TIL [6]": {"system": "TIL", "test": "Treg detection assay", "format": "cell-based, human", "details": "TIL with or without cardiolipin", "experimental": "Briefly, cells were stained extracellularly with CD3 PE (clone UCHT-1, BD 555749), CD4 V450 (clone RPA-T4, BD 561838), CD8 APC-Cy7 (clone SK1, BD 557834), CD25 PE-Cy7 (clone 2A3, BD 335824), CD127 APC (clone R34.34, Beckman Coulter B42026) for 15 minutes in ice and then washed and permeabilized using Biolegend's True-Nuclear Transcription Factor Buffer Set according to manufacturer's instructions.\nCells were then stained intracellularly with FOXP3 Alexa488 antibody (clone 259D/C7, BD 560047) or an IgG1 isotype control Alexa 488 (BD 557702), and CD3 PE (clone UCHT-1, BD 555749). Tregs cells were identified by flow cytometry as CD3^+ CD4^+ CD25^high CD127^−FoxP3^+)."}, "TIL [7]": {"system": "TIL", "test": "CD107a assay", "format": "cell-based, human", "details": "TIL with or without cardiolipin", "experimental": "Briefly, positive control cells were stimulated with 1 μg/mL of PMA; non-stimulated cells served as the control and data were performed in triplicates. Both stimulated and non-stimulated cells were incubated with a protein transport inhibitor containing monensin (BD, 51-2092kz) and CD107a PE antibody (clone H4A3, BD 555801) for 2 hours. Then an extracellular staining was performed using CD3 PE-Cy7 (clone UCHT1, BD 563423), CD4 V450 (clone RPA-T4, BD 561838) and CD8 APC-Cy7 (clone SK1, BD 557834). Control cells are PBMCs that had been cultured for 48-72 hours in the presence of 300 IU/mL IL-2 and 50 IU/mL IL-15. The assay is considered as positive if the positive control cells (PMA stimulated) have at least 2× the SD of the triplicates of the negative control."}, "[8]": {"system": "PBMCs from healthy individuals", "test": "Cardiolipin titration: IFN-γ and IL-17A production in PBMCs and whole blood", "format": "cell-based, human", "details": "250 nM cardiolipin, PBMCs from healthy individuals stimulated with OKT3 (30 ng/mL)"}},
  "note": "Where “and” joins values, the source holds several entries; their conditions need not be identical. Equal entries are not always repeated. Entries after “also recorded” stand apart in the source; their conditions may differ.",
  "data": [
    {"compound": "CC(C)(O)c1coc(S(=O)(=O)NC(=O)Nc2c3c(cc4c2CCC4)CCC3)c1", "note": "[MCC950]", "values": [
      {"measurement": "tumor associated antigen (KRAS epitope) recognition in TIL", "setting": "NRLP3 pathway", "result": "statistically reduces the function of cardiolipin; also recorded: reduces the tumor associated antigen recognition in TIL"}
    ]},
    {"compound": "PVTSLSSVSTGDTTP [MUC4-P3 [Mut][WT]]", "values": [
      {"measurement": "Pancreatic TIL D1599 IFN-y", "setting": "TIL [1]; Pancreatic TIL D1599", "result": 0, "unit": "pg/mL"},
      {"measurement": "Pancreatic TILD1599 IL 17", "setting": "TIL [1]; Pancreatic TIL D1599", "result": 2, "unit": "pg/mL"},
      {"measurement": "IgG binding reactivity to the nominal MUC4 epitope", "setting": "[2]", "result": "strong IgG binding reactivity"}
    ]},
    {"compound": "cardiolipin", "values": [
      {"measurement": "IFN-γ production in TIL", "setting": "TIL [3]", "result": "no differences"},
      {"measurement": "IL-17 production in TIL", "setting": "TIL [3]", "result": "no differences"},
      {"measurement": "frequency of γδ T-cells", "setting": "PBMCs; PBMCs of healthy individuals expanded with cardiolipin without interleukins", "result": "increased"},
      {"measurement": "Percentage of γδ T-cells, w/CL", "setting": "PBMCs; healthy individuals PBMCs, presence of cardiolipin, without interleukins, single donors, listed as CL", "result": "10.5% and 9.32% and 26% and 10.9% and 22.9%"},
      {"measurement": "Percentage of γδ T-cells, w/CL, Average", "setting": "PBMCs; healthy individuals PBMCs, presence of cardiolipin, average of donors", "result": 15.92, "unit": "%"},
      {"measurement": "recognition of commonly shared tumor-associated antigens (KRAS, mesothelin) by TIL, IFN-γ production", "setting": "TIL [1]; TIL expanded in cardiolipin", "result": "recognized a high number of KRAS as well as mesothelin targets"},
      {"measurement": "T-cell maturation, activation, or exhaustion markers", "setting": "TIL [4]; CD4+, CD8+, double-positive, double-negative or γδ+ TIL, with vs without cardiolipin", "result": "not observed"},
      {"measurement": "frequency of γδ TIL", "setting": "TIL [4]; TIL expanded with IL-7, IL-15, IL-21 with vs without cardiolipin", "result": "increased"},
      {"measurement": "CXCL9 gene expression", "setting": "TIL [5]", "result": "over-expressed"},
      {"measurement": "CXCL10 gene expression", "setting": "TIL [5]", "result": "over-expressed"},
      {"measurement": "KBTBD11 gene expression", "setting": "TIL [5]", "result": "statistically reduced"},
      {"measurement": "regulatory T-cells (Treg) in TIL", "setting": "TIL [6]", "result": "no differences"},
      {"measurement": "CD107 induction in TIL", "setting": "TIL [7]", "result": "no differences"},
      {"measurement": "production of IFN-γ", "setting": "[8]", "result": "favorable production of IFN-γ"}
    ]}
  ]
}
